Experimental findings from patent US11066414B2, “Cot modulators and methods of use thereof” (Gilead Sciences, Inc., priority 2015, dated 2021) are described below.

Where two headings read alike, the source gives them in different places.

The subject of assay [1] is TNFα. Nature of the assay: Cot Monocyte TNFα Cell Based Assay.
Assay [2] concerns the target Human Cot (Homo sapiens (Human), UniProt P41279). The assay is described as follows: High Throughput Cot Biochemical Assay. As to conditions: Cot HTRF (TR-FRET) biochemical assay. (TR-FRET usually uses a lanthanide donor and a delayed reading to cut background.)
The mark [3] stands for this setting: Homo sapiens, Monocyte, read-out: EC50 TNF, LPS-stimulated human monocytes, TNFα.
Setting [4] is: read-out: EC50 TNF, LPS-stimulated human monocytes, TNFα.

Chain of Human Cot (P41279 30-397): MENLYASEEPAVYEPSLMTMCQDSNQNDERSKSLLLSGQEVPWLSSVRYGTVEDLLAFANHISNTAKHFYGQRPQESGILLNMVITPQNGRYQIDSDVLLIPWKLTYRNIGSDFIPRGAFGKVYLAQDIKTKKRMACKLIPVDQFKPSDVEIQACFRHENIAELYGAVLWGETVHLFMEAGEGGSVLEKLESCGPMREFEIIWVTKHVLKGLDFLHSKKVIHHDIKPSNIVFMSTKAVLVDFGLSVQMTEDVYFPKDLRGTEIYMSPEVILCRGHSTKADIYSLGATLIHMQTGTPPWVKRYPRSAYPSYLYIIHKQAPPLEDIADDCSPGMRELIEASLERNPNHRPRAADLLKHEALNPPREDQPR

For the compound `Cc1nc(F)ccc1[C@H](Nc1cc(Cl)c2ncc(C#N)c(NCC(C)(C)C)c2c1)c1cn(C2(C(=O)N(C)C)CC2)nn1` [Example 553, (S)-1-(4-(((8-chloro-3-cyano-4-(neopentyl-amino)quinolin-6-yl)amino)(6-fluoro-2-methylpyridin-3-yl)methyl)-1H-1,2,3-triazol-1-yl)-N,N-dimethylcyclopropane-1-carboxamide], the EC50 in assay [1] (setting [3]) was 0.064 µM. In assay [2] (IC50 HTRF), half-maximal inhibition (IC50) was put at 0.003 µM.

Turning to `Cc1nc(F)ccc1[C@H](Nc1cc(Cl)c2ncc(C#N)c(NCC(C)(C)C)c2c1)c1cn(C2(C(=O)N3CCCC3)CC2)nn1` [Example 554, (S)-8-chloro-6-(((6-fluoro-2-methylpyridin-3-yl)(1-(1-(pyrrolidine-1-carbonyl)cyclopropyl)-1H-1,2,3-triazol-4-yl)methyl)amino)-4-(neopentylamino)quinoline-3-carbonitrile], the concentration for a half-maximal effect (EC50) in assay [1] (setting [3]) came out at 0.151 µM. The compound further had an IC50 in assay [2] (IC50 HTRF) of 0.005 µM.

For `Cc1nc(F)ccc1[C@H](Nc1cc(Cl)c2ncc(C#N)c(NCC(C)(C)C)c2c1)c1cn(C2(C(=O)N3CCOCC3)CC2)nn1` [Example 555, (S)-8-chloro-6-(((6-fluoro-2-methylpyridin-3-yl)(1-(1-(morpholine-4-carbonyl)cyclopropyl)-1H-1,2,3-triazol-4-yl)methyl)amino)-4-(neopentylamino)quinoline-3-carbonitrile], in assay [1] (setting [3]), the EC50 was 0.208 µM. This compound also came in with an IC50 in assay [2] (IC50 HTRF) of 0.007 µM.

Turning to `Cc1n[nH]c2cccc([C@H](Nc3cc(Cl)c4ncc(C#N)c(NCC(C)(C)C)c4c3)c3cn(C4(C(F)F)CC4)nn3)c12` [Example 556, (S)-8-chloro-6-(((1-(1-(difluoromethyl)cyclo-propyl)-1H-1,2,3-triazol-4-yl)(3-methyl-1H-indazol-4-yl)methyl)amino)-4-(neopentyl-amino)quinoline-3-carbonitrile], the 50% effective concentration (EC50) in assay [1] (setting [3]) was determined as 0.12 µM. The compound also yielded an IC50 in assay [2] (IC50 HTRF) of 0.008 µM.

For the compound `Cn1ncc2c([C@H](Nc3cc(C#N)c4ncc(C#N)c(NCC(C)(C)C)c4c3)c3cn(C4(C(F)(F)F)CC4)nn3)cccc21` [Example 557, (S)-6-(((1-methyl-1H-indazol-4-yl)(1-(1-(trifluoro-methyl)cyclopropyl)-1H-1,2,3-triazol-4-yl)methyl)amino)-4-(neopentylamino)-quinoline-3,8-dicarbonitrile], in assay [1] (setting [3]), the EC50 stood at 0.117 µM. Moreover, the IC50 in assay [2] (IC50 HTRF) was 0.005 µM.

With `Cn1cc2c([C@H](Nc3cc(C#N)c4ncc(C#N)c(NCC(C)(C)C)c4c3)c3cn(C4(C(F)(F)F)CC4)nn3)cccc2n1` [Example 558, (S)-6-(((2-methyl-2H-indazol-4-yl)(1-(1-(trifluoromethyl)cyclopropyl)-1H-1,2,3-triazol-4-yl)methyl)amino)-4-(neopentyl-amino)quinoline-3,8-dicarbonitrile], the EC50 in assay [1] (setting [3]) was found to be 0.072 µM. This compound registered an IC50 in assay [2] (IC50 HTRF) of 0.003 µM.

Regarding `Cn1nnc2cccc([C@H](Nc3cc(C#N)c4ncc(C#N)c(NCC(C)(C)C)c4c3)c3cn(C4(C(F)F)CC4)nn3)c21` [Example 559, (S)-6-(((4-(1-1-(difluoromethyl)cyclopropyl)-1H-1,2,3-triazol-4-yl)(1-methyl-1H-benzo[d] [1,2,3]triazol-7-yl)methyl)amino)-4-(neopentylamino)quinoline-3,8-dicarbonitrile], in assay [1] (setting [4]), the EC50 worked out at 0.042 µM. Further, the IC50 in assay [2] (read-out: IC50 HTRF) worked out at 0.002 µM.

In the case of `CC(C)(C)CNc1c(C#N)cnc2c(Cl)cc(N[C@H](c3cn(C4(C(F)(F)F)CC4)nn3)c3cccn4nccc34)cc12` [Example 560, (S)-8-chloro-4-(neopentylamino)-6-((pyrazolo[1,5-a]pyridin-4-yl(1-(1-(trifluoromethyl)cyclopropyl)-1H-1,2,3-triazol-4-yl)methyl)amino)quinoline-3-carbonitrile], the EC50 in assay [1] (setting [3]) is 0.287 µM. Moreover, in assay [2] (IC50 HTRF), the IC50 amounted to 0.011 µM.

Consider `CC(C)(C)CNc1c(C#N)cnc2c(Cl)cc(N[C@H](c3cn(C4(C(N)=O)CC4)nn3)c3cccc4cnccc34)cc12` [Example 561, (S)-1-(4-(((8-chloro-3-cyano-4-(neopentylamino)quinolin-6-yl)amino) (isoquinolin-5-yl)methyl)-1H-1,2,3-triazol-1-yl)cyclopropane-1-carboxamide], for which the EC50 in assay [1] (setting [3]) worked out at 0.433 µM. The compound also showed an IC50 in assay [2] (IC50 HTRF) of 0.002 µM.

Take `CC(C)(C)CNc1c(C#N)cnc2c(Cl)cc(N[C@H](c3cn(C4(C(N)=O)CCC4)nn3)c3cccc4cnccc34)cc12` [Example 562, (S)-1-(4-(((8-chloro-3-cyano-4-(neopentyl-amino)quinolin-6-yl)amino)(isoquinolin-5-yl)methyl)-1H-1,2,3-triazol-1-yl)cyclobutane-1-carboxamide]: in assay [1] (setting [3]), the EC50 is 0.231 µM. Also, the IC50 in assay [2] (IC50 HTRF) was 0.002 µM.

Consider `CC(C)(C)CNc1c(C#N)cnc2c(Cl)cc(N[C@H](c3cn(C4(C#N)CC4)nn3)c3cccc4cnccc34)cc12` [Example 563, (S)-8-chloro-6-(((1-(1-cyanocyclopropyl)-1H-1,2,3-triazol-4-yl)(isoquinolin-5-yl)methyl)amino)-4-(neopentylamino)-quinoline-3-carbonitrile], for which, in assay [1] (setting [3]), the EC50 is 0.063 µM. Besides, in assay [2] (IC50 HTRF), the IC50 amounted to 0.002 µM.

As for `CC(C)(C)CNc1c(C#N)cnc2c(Cl)cc(N[C@H](c3cn(C4(C)CC4)nn3)c3cccc4cnccc34)cc12` [Example 564, (S)-8-chloro-6-((isoquinolin-5-yl(1-(1-methylcyclopropyl)-1H-1,2,3-triazol-4-yl)methyl)amino)-4-(neopentylamino)-quinoline-3-carbonitrile], the EC50 in assay [1] (setting [3]) was 0.069 µM. Besides, half-maximal inhibition in assay [2] (IC50 HTRF) (IC50) required 0.003 µM.

`CC(C)(C)CNc1c(C#N)cnc2c(Cl)cc(N[C@H](c3cn(C4(C(N)=O)CC4)nn3)c3cccc4ncccc34)cc12` [Example 565, (S)-1-(4-(((8-chloro-3-cyano-4-(neopentyl-amino)quinolin-6-yl)amino)(quinolin-5-yl)methyl)-1H-1,2,3-triazol-1-yl)cyclo-propane-1-carboxamide]: the EC50 in assay [1] (setting [3]) turned out to be 0.306 µM. For the same compound, the IC50 in assay [2] (IC50 HTRF) was 0.002 µM.

As for `CC(C)(C)CNc1c(C#N)cnc2c(Cl)cc(N[C@H](c3cn(C4(C(N)=O)CCC4)nn3)c3cccc4ncccc34)cc12` [Example 566, (S)-1-(4-(((8-chloro-3-cyano-4-(neopentyl-amino)quinolin-6-yl)amino)(quinolin-5-yl)methyl)-1H-1,2,3-triazol-1-yl)cyclobutane-1-carboxamide], in assay [1] (setting [3]), the EC50 came to 0.19 µM. Also, the IC50 in assay [2] (IC50 HTRF) is 0.002 µM.

`CC(C)(C)CNc1c(C#N)cnc2c(Cl)cc(N[C@H](c3cn(C4(C#N)CC4)nn3)c3cccc4ncccc34)cc12` [Example 567, (S)-8-chloro-6-(((1-(1-cyanocyclopropyl)-1H-1,2,3-triazol-4-yl)(quinolin-5-yl)methyl)amino)-4-(neopentylamino)-quinoline-3-carbonitrile]: in assay [1] (setting [3]), the EC50 is 0.066 µM. This compound also gave an IC50 in assay [2] (IC50 HTRF) of 0.002 µM.

For the compound `CC(C)(C)CNc1c(C#N)cnc2c(Cl)cc(N[C@H](c3cn(C4(C)CC4)nn3)c3cccc4ncccc34)cc12` [Example 568, (S)-8-chloro-6-(((1-(1-methylcyclopropyl)-1H-1,2,3-triazol-4-yl)(quinolin-5-yl)methyl)amino)-4-(neopentylamino)-quinoline-3-carbonitrile], the EC50 in assay [1] (setting [3]) stood at 0.17 µM. This compound showed an IC50 in assay [2] (IC50 HTRF) of 0.005 µM.

Take `CC(C)(C)CNc1c(C#N)cnc2c(C#N)cc(N[C@H](c3cn(C4(CF)CC4)nn3)c3cccc4cnccc34)cc12` [Example 569]: in assay [1] (setting [4]), the EC50 came out at 0.171 µM. Further, in assay [2] (read-out: IC50 HTRF), the IC50 came to 0.007 µM.

With `Cn1cc2cccc([C@H](Nc3cc(Cl)c4ncc(C#N)c(NCC(C)(C)C)c4c3)c3cn(C4(C(F)(F)F)CC4)nn3)c2n1` [Example 570, (S)-8-chloro-6-(((2-methyl-2H-indazol-7-yl)(1-(1-(trifluoromethyl)cyclopropyl)-1H-1,2,3-triazol-4-yl)methyl)amino)-4-(neopentylamino)quinoline-3-carbonitrile], in assay [1] (setting [3]), the EC50 stood at 1 µM. For the same compound, in assay [2] (IC50 HTRF), inhibition was half-maximal at 0.184 µM (IC50).

On to `CC(C)(C)CNc1c(C#N)cnc2c(C#N)cc(N[C@H](c3cn(C4(C(F)(F)F)CC4)nn3)c3cccn4nccc34)cc12` [Example 572, (S)-4-(neopentylamino)-6-((pyrazolo[1,5-a]pyridin-4-yl(1-(1-(trifluoromethyl)cyclo-propyl)-1H-1,2,3-triazol-4-yl)methyl)amino)quinoline-3,8-dicarbonitrile], for which the EC50 in assay [1] (setting [3]) worked out at 0.079 µM. The midpoint of inhibition in assay [2] (IC50 HTRF), the IC50, lay at 0.004 µM.

Consider `Cn1cc2cccc([C@H](Nc3cc(C#N)c4ncc(C#N)c(NCC(C)(C)C)c4c3)c3cn(C4(C(F)(F)F)CC4)nn3)c2n1` [Example 573, (S)-6-(((2-methyl-2H-indazol-7-yl)(1-(1-(trifluoromethyl)cyclopropyl)-1H-1,2,3-triazol-4-yl)methyl)amino)-4-(neopentylamino)quinoline-3,8-dicarbonitrile], for which the EC50 in assay [1] (setting [3]) is 0.751 µM. The compound also returned an IC50 in assay [2] (IC50 HTRF) of 0.066 µM.

In the case of `[2H]c1c([C@@H](Nc2cc(C#N)c3ncc(C#N)c(NCC(C)(C)C)c3c2)c2ccc(F)nc2C)nnn1C1(C(F)(F)F)CC1` [Example 574, (S)-6-(((6-fluoro-2-methylpyridin-3-yl)(1-(1-(trifluoromethyl)cyclopropyl)-1H-1,2,3-triazol-4-yl-5-d)methyl)amino)-4-(neopentylamino)quinoline-3,8-dicarbonitrile], in assay [1] (setting [3]), the EC50 was determined as 0.086 µM. The compound also yielded an IC50 in assay [2] (IC50 HTRF) of 0.004 µM.

For `CC(C)(C)CNc1c(C#N)cnc2c(C#N)cc(N[C@H](c3cn(C4(C(N)=O)CC4)nn3)c3cccc4ncccc34)cc12` [Example 575, (S)-1-(4-(((3,8-dicyano-4-(neopentylamino)-quinolin-6-yl)amino)(quinolin-5-yl)methyl)-1H-1,2,3-triazol-1-yl)cyclopropane-1-carboxamide], the concentration giving a half-maximal response (EC50) in assay [1] (setting [3]) amounted to 0.974 µM. In assay [2] (IC50 HTRF), this compound yielded an IC50 of 0.001 µM.

By EC50 is commonly meant the concentration needed to bring the measured effect to its halfway point. One may read the IC50 as the concentration needed to halve the response being measured.
